In ChEMBL document CHEMBL3352640, “Carbonic anhydrase inhibitors: design, synthesis, and biological evaluation of novel sulfonyl semicarbazide derivatives” (ACS Med Chem Lett, 2014) one finds Ki data, which are given here for 9 compounds.

The assay deals with Carbonic anhydrase 9 (Homo sapiens, UniProt Q16790). Nature of the assay: Inhibition of human carbonic anhydrase 9 preincubated for 15 mins by stopped flow CO2 hydration assay.
On to `NS(=O)(=O)c1ccc(NC(=O)NNS(=O)(=O)c2ccccc2)cc1`, for which the Ki worked out at 0.0739 µM.
The figure for `NS(=O)(=O)c1ccc(NC(=O)NNS(=O)(=O)c2ccc(F)cc2)cc1` is 0.0251 µM.
The figure for `NS(=O)(=O)c1ccc(NC(=O)NNS(=O)(=O)c2ccc(Cl)cc2)cc1` is 0.0231 µM.
For `NS(=O)(=O)c1ccc(NC(=O)NNS(=O)(=O)c2ccc(Br)cc2)cc1` the value was 0.0304 µM; for `Cc1ccc(S(=O)(=O)NNC(=O)Nc2ccc(S(N)(=O)=O)cc2)cc1`, 0.024 µM.
As for `NS(=O)(=O)c1ccc(NC(=O)NNS(=O)(=O)c2ccc([N+](=O)[O-])cc2)cc1`, affinity was put at a Ki of 0.0205 µM.
For `NS(=O)(=O)c1ccc(NC(=O)NNS(=O)(=O)c2ccc(Cl)c([N+](=O)[O-])c2)cc1` the value was 0.0387 µM.
The figure for `COc1ccc(S(=O)(=O)NNC(=O)Nc2ccc(S(N)(=O)=O)cc2)cc1` is 0.0804 µM.
Regarding `CC(=O)Nc1ccc(S(=O)(=O)NNC(=O)Nc2ccc(S(N)(=O)=O)cc2)cc1`, affinity was put at a Ki of 0.0813 µM.

In general, Ki refers to a measure of affinity in units of concentration, obtained from inhibition or displacement. Read a high Ki as weaker binding.
